Source: article PMC6271228, “Diethyl 2-(Phenylcarbamoyl)phenyl Phosphorothioates: Synthesis, Antimycobacterial Activity and Cholinesterase Inhibition” (Molecules, 2014)
Converted amounts (≈) assume the structure as drawn. Where two headings read alike, the source gives them in different places.

Columns and labels:
M. kansasii My 235/80 = assay: microbe, parasite or virus in culture; assay type: cell-based, Mycobacterium kansasii; settings: Mycobacterium kansasii, 37 °C
[1] = tested on: M. kansasii 6509/96 (clinically isolated); assay: microbe, parasite or virus in culture; assay type: cell-based; settings: Mycobacterium kansasii, 37 °C
AChE from electric eel = biological target: T1, AChE from electric eel (Electrophorus electricus, UniProt O42275); assay: AChE inhibition, modified Ellman's method; assay type: biochemical, Electrophorus electricus L.
T1 construct: Acetylcholinesterase was obtained from electric eel (Electrophorus electricus L.); from tissue; host or cells: electric eel (Electrophorus electricus L.)
Excerpt: (§1) The ability of the tested compounds to inhibit AChE from electric eel (Electrophorus electricus L.) and BChE from equine serum was screened in vitro using modified Ellman’s method for the evaluation of cholinesterase activity. […] […]. These two standards were chosen due to their different structures. […]. The choice of these drugs with different mechanism of action can provide relevant results. All tested compounds expressed a good inhibitory activity with IC50s in low micromolar values.
(§2) The IC50 values were determined using the spectrophotometric Ellman’s method, which is a simple, rapid and direct method to determine the SH and -S-S- group content in proteins. This method is widely used for cholinesterase activity evaluation and screening of the efficiency of cholinesterase inhibitors. Cholinesterase activity is measured indirectly by quantifying the concentration of 5-thio-2-nitrobenzoic acid (TNB) ion formed in the reaction between the thiol reagent 5,5'-dithiobis-2-nitrobenzoic acid (DTNB) and thiocholine, a product of substrate hydrolysis by cholinesterase (i.e., acetylthiocholine, ATCh). All the tested compounds were dissolved in dimethyl sulfoxide (concentration 0.01 M) and then diluted in demineralised water (concentration 0.001 M and 0.0001 M). The Ellman’s method is slightly modified according to Zdrazilova et al.. Acetylcholinesterase was obtained from electric eel (Electrophorus electricus L.) and butyrylcholinesterase from equine serum.

[2] = tested on: Mycobacterium tuberculosis My 331/88 (H37Rv); assay: microbe, parasite or virus in culture; assay type: cell-based
BChE from equine serum = biological target: T2, BChE from equine serum (Equus caballus, UniProt P81908); assay: BChE inhibition, modified Ellman's method; assay type: biochemical
T2 construct: butyrylcholinesterase from equine serum; from tissue; host or cells: equine serum
Excerpt: as §1, §2

M. avium My 330/88 = assay: microbe, parasite or virus in culture; assay type: cell-based, Mycobacterium avium; settings: for MIC: Mycobacterium avium, 37 °C; for MIC values against M. avium: all MIC values (14 and 21 d)
[3] = MY235/80, 168 h, 7 d, read-out: MIC M. kansasii 235/80 7 d
[4] = MY235/80, 336 h, 14 d, read-out: MIC M. kansasii 235/80 14 d
[5] = MY235/80, 504 h, 21 d, read-out: MIC M. kansasii 235/80 21 d
[6] = 168 h, 7 d, read-out: MIC M. kansasii 6509/96 7 d
[7] = 336 h, 14 d, read-out: MIC M. kansasii 6509/96 14 d
[8] = 504 h, 21 d, read-out: MIC M. kansasii 6509/96 21 d
[9] = 336 h, 14 d, 37 °C, read-out: MIC Mtb 331/88 (H37Rv) 14 d
[10] = 504 h, 21 d, 37 °C, read-out: MIC Mtb 331/88 (H37Rv) 21 d
[11] = MY330/88, 336 h, 14 d, read-out: MIC M. avium 330/88 14 d
[12] = MY330/88, 504 h, 21 d, read-out: MIC M. avium 330/88 21 d

T2 sequence (P81908 whole entry): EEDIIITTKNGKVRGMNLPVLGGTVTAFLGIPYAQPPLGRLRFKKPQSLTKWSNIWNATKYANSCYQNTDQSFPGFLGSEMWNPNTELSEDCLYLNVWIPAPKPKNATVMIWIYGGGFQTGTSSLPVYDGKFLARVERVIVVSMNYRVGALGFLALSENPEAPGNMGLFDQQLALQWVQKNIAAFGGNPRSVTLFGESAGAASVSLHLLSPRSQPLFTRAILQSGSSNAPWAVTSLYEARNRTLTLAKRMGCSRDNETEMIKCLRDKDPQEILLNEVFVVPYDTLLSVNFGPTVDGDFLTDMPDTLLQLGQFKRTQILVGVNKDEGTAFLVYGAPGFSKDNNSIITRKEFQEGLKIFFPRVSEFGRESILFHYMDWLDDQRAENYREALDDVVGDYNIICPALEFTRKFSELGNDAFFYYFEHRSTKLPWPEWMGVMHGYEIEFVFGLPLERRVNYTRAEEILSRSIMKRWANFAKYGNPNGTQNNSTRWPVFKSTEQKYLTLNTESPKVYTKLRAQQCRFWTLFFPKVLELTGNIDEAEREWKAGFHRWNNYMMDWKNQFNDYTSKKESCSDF
T1 sequence (O42275 24-633): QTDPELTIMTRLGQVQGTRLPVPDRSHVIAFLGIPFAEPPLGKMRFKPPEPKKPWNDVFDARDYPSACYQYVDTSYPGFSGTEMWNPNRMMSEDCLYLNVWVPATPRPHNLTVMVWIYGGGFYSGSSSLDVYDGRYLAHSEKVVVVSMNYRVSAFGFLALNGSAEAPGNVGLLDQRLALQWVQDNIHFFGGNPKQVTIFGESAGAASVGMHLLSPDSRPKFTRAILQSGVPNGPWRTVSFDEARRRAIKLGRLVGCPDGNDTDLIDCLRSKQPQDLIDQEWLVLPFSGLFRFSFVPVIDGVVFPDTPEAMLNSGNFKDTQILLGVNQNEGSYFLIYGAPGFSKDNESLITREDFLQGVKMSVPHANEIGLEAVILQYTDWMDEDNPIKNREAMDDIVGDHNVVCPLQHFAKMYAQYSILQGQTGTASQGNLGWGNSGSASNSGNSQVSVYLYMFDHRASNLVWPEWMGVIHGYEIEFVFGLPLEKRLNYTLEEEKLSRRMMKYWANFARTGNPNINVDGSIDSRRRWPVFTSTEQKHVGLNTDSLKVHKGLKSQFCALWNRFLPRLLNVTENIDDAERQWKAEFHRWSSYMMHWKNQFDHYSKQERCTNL

| Structure (SMILES) | MIC (M. kansasii My 235/80; [3]) [µM] | MIC (M. kansasii My 235/80; [4]) [µM] | MIC (M. kansasii My 235/80; [5]) [µM] | MIC [1, 6] [µM] | MIC [1, 7] [µM] | MIC [1, 8] [µM] | IC50 (AChE from electric eel) [µM] | MIC [2, 9] [µM] | MIC [2, 10] [µM] | IC50 (BChE from equine serum) [µM] | MIC (M. avium My 330/88; [11]) [µM] | MIC (M. avium My 330/88; [12]) [µM] | MIC ([2]; read-out: MIC against Mtb) [µM] | MIC values against M. avium (M. avium My 330/88) [µM] |
| --- | --- | --- | --- | --- | --- | --- | --- | --- | --- | --- | --- | --- | --- | --- |
| CCOP(=S)(OCC)Oc1ccc(Cl)cc1C(=O)Nc1ccc(Br)cc1 [1n, O-{2-[(4-Bromophenyl)carbamoyl]-4-chlorophenyl} O,O-diethyl phosphorothioate] | 250 (≈ 120 µg/mL) | 500 (≈ 239 µg/mL) | 500 (≈ 239 µg/mL) | 250 (≈ 120 µg/mL) | 500 (≈ 239 µg/mL) | 500 (≈ 239 µg/mL) | 9.32 ± 0.06 | 32 (≈ 15.3 µg/mL) | 32 (≈ 15.3 µg/mL) | 15.1 ± 0.1 | 500 (≈ 239 µg/mL) | 500 (≈ 239 µg/mL) | – | – |
| CCOP(=S)(OCC)Oc1ccc(Cl)cc1C(=O)Nc1cccc(F)c1 [1o, O-{4-Chloro-2-[(3-fluorophenyl)carbamoyl]phenyl} O,O-diethyl phosphorothioate] | 250 (≈ 104 µg/mL) | 500 (≈ 209 µg/mL) | > 500 | 250 (≈ 104 µg/mL) | 500 (≈ 209 µg/mL) | 500 (≈ 209 µg/mL) | 9.94 ± 0.2 | 32 (≈ 13.4 µg/mL) | 32 (≈ 13.4 µg/mL) | 11.8 ± 0.6 | 500 (≈ 209 µg/mL) | 500 (≈ 209 µg/mL) | – | – |
| CCOP(=S)(OCC)Oc1ccc(Cl)cc1C(=O)Nc1ccc(F)cc1 [1p, O-{4-Chloro-2-[(4-fluorophenyl)carbamoyl]phenyl} O,O-diethyl phosphorothioate] | 250 (≈ 104 µg/mL) | 500 (≈ 209 µg/mL) | > 500 | 125 (≈ 52.2 µg/mL) | 250 (≈ 104 µg/mL) | 500 (≈ 209 µg/mL) | 13.6 ± 1.1 | 16 (≈ 6.69 µg/mL) | 16 (≈ 6.69 µg/mL) | 14.9 ± 0.8 | 500 (≈ 209 µg/mL) | 500 (≈ 209 µg/mL) | – | – |
| CCOP(=S)(OCC)Oc1ccc(Cl)cc1C(=O)Nc1cccc(C(F)(F)F)c1 [1q, O-(4-Chloro-2-{[3-(trifluoromethyl)phenyl]carbamoyl}phenyl) O,O-diethyl phosphorothioate] | 125 (≈ 58.5 µg/mL) | 500 (≈ 234 µg/mL) | > 500 | 125 (≈ 58.5 µg/mL) | 500 (≈ 234 µg/mL) | 500 (≈ 234 µg/mL) | 12.1 ± 0.2 | 8 (≈ 3.74 µg/mL) | 8 (≈ 3.74 µg/mL) | 19.9 ± 0.2 | 500 (≈ 234 µg/mL) | > 500 | 8 (≈ 3.74 µg/mL) | – |
| CCOP(=S)(OCC)Oc1ccc(Cl)cc1C(=O)Nc1ccc(C(F)(F)F)cc1 [1r, O-(4-Chloro-2-{[4-(trifluoromethyl)phenyl]carbamoyl}phenyl) O,O-diethyl phosphorothioate] | 62.5 (≈ 29.2 µg/mL) | 125 (≈ 58.5 µg/mL) | 250 (≈ 117 µg/mL) | 62.5 (≈ 29.2 µg/mL) | 125 (≈ 58.5 µg/mL) | 250 (≈ 117 µg/mL) | 9.7 ± 0.18 | 8 (≈ 3.74 µg/mL) | 8 (≈ 3.74 µg/mL) | 15.6 ± 0.7 | 500 (≈ 234 µg/mL) | 500 (≈ 234 µg/mL) | 8 (≈ 3.74 µg/mL) | – |
| CCOP(=S)(OCC)Oc1cc(Cl)ccc1C(=O)Nc1cccc(Cl)c1 [1s, O-{5-Chloro-2-[(3-chlorophenyl)carbamoyl]phenyl} O,O-diethyl phosphorothioate] | 32 (≈ 13.9 µg/mL) | 125 (≈ 54.3 µg/mL) | 125 (≈ 54.3 µg/mL) | 32 (≈ 13.9 µg/mL) | 62.5 (≈ 27.1 µg/mL) | 125 (≈ 54.3 µg/mL) | 9.79 ± 0.2 | 16 (≈ 6.95 µg/mL) | 32 (≈ 13.9 µg/mL) | 12.5 ± 0.1 | 125 (≈ 54.3 µg/mL) | 125 (≈ 54.3 µg/mL) | – | ≤ 250 |
| CCOP(=S)(OCC)Oc1cc(Cl)ccc1C(=O)Nc1ccc(Cl)cc1 [1t, O-{5-Chloro-2-[(4-chlorophenyl)carbamoyl]phenyl} O,O-diethyl phosphorothioate] | 32 (≈ 13.9 µg/mL) | 32 (≈ 13.9 µg/mL) | 32 (≈ 13.9 µg/mL) | 32 (≈ 13.9 µg/mL) | 62.5 (≈ 27.1 µg/mL) | 62.5 (≈ 27.1 µg/mL) | 10.8 ± 0.3 | 32 (≈ 13.9 µg/mL) | 32 (≈ 13.9 µg/mL) | 13.8 ± 0.05 | 125 (≈ 54.3 µg/mL) | 125 (≈ 54.3 µg/mL) | – | ≤ 250 |
